Test results published in ChEMBL document CHEMBL4414648, “Novel Benzohydroxamate-Based Potent and Selective Histone Deacetylase 6 (HDAC6) Inhibitors Bearing a Pentaheterocyclic Scaffold: Design, Synthesis, and Biological Evaluation” (J Med Chem, 2019).

Key:
[1] = target: T1, Protein deacetylase HDAC6 (Homo sapiens, UniProt Q9UBN7); assay: biochemical
T1 sequence (Q9UBN7 whole entry): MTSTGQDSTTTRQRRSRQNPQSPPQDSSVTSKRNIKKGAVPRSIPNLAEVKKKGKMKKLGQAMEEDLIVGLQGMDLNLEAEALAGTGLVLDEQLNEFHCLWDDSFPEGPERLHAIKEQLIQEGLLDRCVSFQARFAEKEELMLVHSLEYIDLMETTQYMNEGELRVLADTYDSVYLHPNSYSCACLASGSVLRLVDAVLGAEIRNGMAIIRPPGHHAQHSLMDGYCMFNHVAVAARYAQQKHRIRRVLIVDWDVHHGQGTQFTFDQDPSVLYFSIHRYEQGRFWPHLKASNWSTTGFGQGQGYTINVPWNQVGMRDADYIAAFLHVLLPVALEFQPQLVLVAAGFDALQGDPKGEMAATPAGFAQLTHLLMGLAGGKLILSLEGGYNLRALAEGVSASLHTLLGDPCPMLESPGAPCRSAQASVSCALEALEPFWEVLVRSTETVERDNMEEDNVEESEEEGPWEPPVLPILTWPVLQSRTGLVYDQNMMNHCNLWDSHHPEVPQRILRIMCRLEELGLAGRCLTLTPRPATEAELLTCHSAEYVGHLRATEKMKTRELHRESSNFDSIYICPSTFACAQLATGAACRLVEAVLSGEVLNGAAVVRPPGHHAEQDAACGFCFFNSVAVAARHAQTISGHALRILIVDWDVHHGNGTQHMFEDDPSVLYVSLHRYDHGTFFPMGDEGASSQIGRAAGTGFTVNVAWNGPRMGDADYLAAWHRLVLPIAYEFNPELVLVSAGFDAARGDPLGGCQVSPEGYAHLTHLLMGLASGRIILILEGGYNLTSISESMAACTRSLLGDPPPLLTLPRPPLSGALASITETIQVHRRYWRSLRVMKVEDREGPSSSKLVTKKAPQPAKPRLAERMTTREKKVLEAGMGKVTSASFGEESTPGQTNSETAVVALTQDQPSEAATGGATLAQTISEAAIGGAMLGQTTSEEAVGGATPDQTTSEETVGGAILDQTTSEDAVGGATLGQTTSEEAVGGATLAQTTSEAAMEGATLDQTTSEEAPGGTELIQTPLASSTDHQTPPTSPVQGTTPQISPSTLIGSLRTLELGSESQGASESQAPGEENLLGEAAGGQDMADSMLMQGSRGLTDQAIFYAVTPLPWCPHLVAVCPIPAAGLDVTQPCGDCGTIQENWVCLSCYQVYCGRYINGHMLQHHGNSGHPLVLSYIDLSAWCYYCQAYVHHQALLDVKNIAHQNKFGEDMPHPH
Description: Inhibition of recombinant full length human N-terminal GST-tagged HDAC6 expressed in baculovirus infected sf9 insect cells pretreated with compound followed by Fluor de Lys deacetylase substrate addition by fluorescence method

[2] = Stability in human plasma assessed as parent compound remaining at 100 uM after 4 hrs by LC-MS/MS analysis; type: ADME, cell-free; conditions: read-out: Stability
[3] = Stability in rat plasma assessed as parent compound remaining at 100 uM after 4 hrs by LC-MS/MS analysis; type: ADME, cell-free; conditions: read-out: Stability
[4] = Stability in rat liver S9 fraction assessed as parent compound remaining at 5 uM after 90 mins in presence of NADPH by LC-MS/MS analysis; type: ADME, subcellular; conditions: read-out: Stability
697 = assay: Cytotoxicity against human 697 cells after 48 hrs by CellTiter 96 aqueous one solution assay; type: cell-based; conditions: Homo sapiens, 697, 48 h
Histone deacetylase = assay: Inhibition of HDAC in human 697 cells assessed as increase in H3 acetylation at 1000 nM incubated for 16 hrs by ELISA; type: cell-based; conditions: human, 697, 16 h, 1 µM
[5] = Selectivity ratio of IC50 for C-terminal His-tagged human HDAC9 (604 to 1066 residues) expressed in baculovirus infected sf9 insect cells to IC50 for human N-terminal GST-tagged HDAC6 expressed in baculovirus infected sf9 insect cells
[6] = Selectivity ratio of IC50 for N-terminal GST-tagged human HDAC7 (518 to end residues) expressed in baculovirus infected sf9 insect cells to IC50 for human N-terminal GST-tagged HDAC6 expressed in baculovirus infected sf9 insect cells
[7] = Selectivity ratio of IC50 for N-terminal His-tagged human HDAC11 expressed in baculovirus expression system to IC50 for human N-terminal GST-tagged HDAC6 expressed in baculovirus infected sf9 insect cells
PBMC = assay: Cytotoxicity against human PBMC cells after 72 hrs by CellTiter 96 aqueous one solution assay; type: cell-based
[8] = Selectivity ratio of IC50 for C-terminal GST-tagged human HDAC5 to IC50 for human N-terminal GST-tagged HDAC6 expressed in baculovirus infected sf9 insect cells
[9] = Selectivity ratio of IC50 for human HDAC4 expressed in baculovirus infected sf9 insect cells to IC50 for human N-terminal GST-tagged HDAC6 expressed in baculovirus infected sf9 insect cells
[10] = Stability in human liver S9 fraction assessed as parent compound remaining at 5 uM after 90 mins in presence of NADPH by LC-MS/MS analysis; type: ADME, subcellular; conditions: read-out: Stability
[11] = Selectivity ratio of IC50 for C-terminal His-tagged human HDAC8 expressed in baculovirus infected sf9 insect cells to IC50 for human N-terminal GST-tagged HDAC6 expressed in baculovirus infected sf9 insect cells
[12] = Selectivity ratio of IC50 for N-terminal Flag-tagged human HDAC10 (2 to 631 residues) expressed in baculovirus infected sf9 insect cells to IC50 for human N-terminal GST-tagged HDAC6 expressed in baculovirus infected sf9 insect cells

| SMILES | IC50 [1] [nM] | remaining at 4 h, 100 µM [2] [%] | remaining at 4 h, 100 µM [3] [%] | remaining at […], 5 µM [4] [%] | IC50 697 [nM] | IC50 (PBMC) [nM] | remaining at […], 5 µM [10] [%] | other results |
| --- | --- | --- | --- | --- | --- | --- | --- | --- |
| O=C(NO)c1ccc(Cn2cccn2)cc1 | 102 | – | – | – | – | – | – | – |
| O=C(NO)c1ccc(Sc2ncc(-c3ccccc3)s2)cc1 | 62 | – | – | – | – | – | – | – |
| O=C(NO)c1ccc(Sc2nnc(-c3ccccc3)o2)cc1 | 6 | – | – | – | – | – | – | – |
| Cn1c(Sc2c(F)cc(C(=O)NO)cc2F)nnc1-c1cccc(CN2CCCCCC2)c1 | 10 | 91 | 85 | 55 | > 1000 | > 1000 | 78 | inhibition (INH) (Histone deacetylase): Active; Ratio IC50 [5]: 23; Ratio IC50 [6]: 79; Ratio IC50 [7]: 169; Ratio IC50 [8]: 82; Ratio IC50 [9]: 86; Ratio IC50 [11]: 41; Ratio IC50 [12]: 310 |
| Cc1cc(-c2nnc(Sc3c(F)c(F)c(C(=O)NO)c(F)c3F)n2C)nn1C | 2530 | – | – | – | – | – | – | – |
| O=C(NO)c1ccc(CC(=O)N(CCO)c2ccccc2)cc1 | – | 79 | 45 | – | 8330 | – | – | – |
| O=C(NO)c1ccc(Cn2nnnc2-c2ccccc2)cc1 | 9 | – | – | – | – | – | – | – |
| Cn1c(Sc2c(F)cc(C(=O)NO)cc2F)nnc1-c1ncccc1F | – | 97 | 100 | 70 | > 1000 | > 1000 | 80 | inhibition (INH) (Histone deacetylase): Active; Ratio IC50 [5]: 24; Ratio IC50 [6]: 38; Ratio IC50 [7]: 250; Ratio IC50 [8]: 54; Ratio IC50 [9]: 53; Ratio IC50 [11]: 64; Ratio IC50 [12]: 432 |
| CN1CCc2c(c3ccccc3n2Cc2ccc(C(=O)NO)cc2)C1 [TUBASTATIN A] | – | 98 | 38 | – | 2010 | – | – | – |
| O=C(NO)c1cc(F)c(Cn2nnc(-c3ccco3)n2)c(F)c1 | 3 | 100 | 100 | 68 | > 1000 | > 1000 | 94 | inhibition (INH) (Histone deacetylase): Active; Ratio IC50 [5]: 192; Ratio IC50 [6]: 330; Ratio IC50 [7]: 259; Ratio IC50 [8]: 194; Ratio IC50 [9]: 219; Ratio IC50 [11]: 210; Ratio IC50 [12]: 876 |
| O=C(NO)c1ccc(-c2nnc(-c3ccccc3)o2)cc1 | 660 | – | – | – | – | – | – | – |
| CCN(CC)Cc1ccc2cc(COC(=O)Nc3ccc(C(=O)NO)cc3)ccc2c1 [GIVINOSTAT] | – | 97 | 72 | 6 | 100 | 313 | 83 | – |
| O=C(NO)c1cc(F)c(Cn2nnc(-c3ncccn3)n2)c(F)c1 | – | 93 | 78 | 96 | > 1000 | > 1000 | 89 | – |
| O=C(NO)c1cc(F)c(Cn2nnc(-c3ccccn3)n2)c(F)c1 | – | 96 | 87 | 97 | > 1000 | > 1000 | 86 | Ratio IC50 [5]: 102; Ratio IC50 [6]: 119; Ratio IC50 [7]: 696; Ratio IC50 [8]: 141; Ratio IC50 [9]: 139; Ratio IC50 [11]: 138; Ratio IC50 [12]: 1463 |
| O=C(NO)c1ccc(Nc2nnc(-c3ccccc3)s2)cc1 | 66 | – | – | – | – | – | – | – |
| Cn1c(Sc2c(F)cc(C(=O)NO)cc2F)nnc1-c1cccs1 | – | 99 | 87 | 71 | > 1000 | > 1000 | 83 | inhibition (INH) (Histone deacetylase): Active; Ratio IC50 [5]: 55; Ratio IC50 [6]: 61; Ratio IC50 [7]: 254; Ratio IC50 [8]: 171; Ratio IC50 [9]: 155; Ratio IC50 [11]: 21; Ratio IC50 [12]: 763 |
| O=C(NO)c1cc(F)c(Cc2nnc(-c3ccncc3)s2)c(F)c1 | – | 93 | 84 | 32 | > 1000 | > 1000 | 68 | inhibition (INH) (Histone deacetylase): Active; Ratio IC50 [5]: 44; Ratio IC50 [6]: 77; Ratio IC50 [7]: 291; Ratio IC50 [8]: 67; Ratio IC50 [9]: 101; Ratio IC50 [11]: 139; Ratio IC50 [12]: 507 |
| Cc1csc(Nc2ccc(C(=O)NO)cc2)n1 | 137 | – | – | – | – | – | – | – |
| O=C(NO)c1ccc(Cc2nnc(-c3ccccc3)[nH]2)cc1 | 5 | – | – | – | – | – | – | – |
| O=C(NO)c1ccc(Cn2nnc(-c3ncccn3)n2)cc1 | 7 | 76 | 99 | 99 | > 1000 | > 1000 | 83 | Ratio IC50 [5]: 246; Ratio IC50 [6]: 146; Ratio IC50 [7]: 103; Ratio IC50 [8]: 721; Ratio IC50 [9]: 665; Ratio IC50 [11]: 46; Ratio IC50 [12]: 111 |
| O=C(NO)c1ccc(Cc2noc(-c3ccccc3)n2)cc1 | 6 | – | – | – | – | – | – | – |
| Cn1c(Cc2ccc(C(=O)NO)cc2)nnc1-c1ccccc1 | 17 | – | – | – | – | – | – | – |
| Cc1cc(-c2nnc(Sc3ccc(C(=O)NO)c(F)c3)n2C)nn1C | 2240 | – | – | – | – | – | – | – |
| Cn1c(Sc2c(F)cc(C(=O)NO)cc2F)nnc1-c1ccc(CN2CCCCC2)cc1 | – | 90 | 75 | 74 | > 1000 | > 1000 | 69 | Ratio IC50 [5]: 36; Ratio IC50 [6]: 83; Ratio IC50 [7]: 342; Ratio IC50 [8]: 101; Ratio IC50 [9]: 126; Ratio IC50 [11]: 32; Ratio IC50 [12]: 814 |
| O=C(CCCCCCNC(=O)c1cnc(N(c2ccccc2)c2ccccc2)nc1)NO [RICOLINOSTAT] | – | 100 | 91 | – | 201 | – | – | – |
| O=C(NO)c1cnc(NC2(c3ccccc3)CC2)nc1 | – | 100 | 12 | – | 3390 | – | – | – |
| O=C(NO)c1ccc(Cc2nnc(-c3ccccc3)s2)cc1 | 16 | – | – | – | – | – | – | – |
| COc1ccc(CC(=O)N[C@@H](Cc2cscn2)C(=O)Nc2ccc(C(=O)NO)cc2)cc1OC | 5 | 100 | 18 | – | > 10000 | – | – | – |
| O=C(NO)c1ccc(Sc2nnc(-c3ccccc3)s2)cc1 | 6 | – | – | – | – | – | – | – |
| CCCCN(Cc1ccc(C(=O)NO)cc1)C(=O)Nc1ccccc1 [NEXTURASTAT A] | – | 100 | 40 | – | 401 | – | – | – |
